Data on seven compounds can be found in paper PMC12299981, “Human Metabolism of Sirolimus Revisited” (Metabolites, 2025).

The term Km denotes the substrate concentration at which the rate is half of its maximum.

Data set [1] deals with pooled human liver microsomes (HLM). As to the kind of experiment: Formation kinetics of SRL metabolites by pooled human liver microsomes. The data set is classed as in vitro ADME. Conditions: for Vmax: apparent Vmax of formation of the metabolite from sirolimus; for Vmax / Km: Michaelis–Menten fit; for Km: apparent Km of formation of the metabolite from sirolimus; for CLint: apparent intrinsic clearance of formation of the metabolite, CLint = Vmax/Km. The method, then: (§1) Apparent enzyme kinetic parameters for the major SRL metabolites were assessed. […] Before the addition of the SRL, the NADPH-generating system was preincubated at 37 °C (type C24 incubator shaker, New Brunswick Scientific, Edison, NJ, USA) for 5 min. […] The final volume of the reaction solution was 500 μL, and the reaction was quenched by the addition of a 1:1 volume of ice-cold acetonitrile. Following protein precipitation, samples were briefly vortexed and subsequently centrifuged at 4 °C and 13,000× g for 10 min. The supernatant was transferred to a 2-mL HPLC glass vial and analyzed using high-performance liquid chromatography/tandem mass spectrometry (LC-MS/MS). Representative control incubations without HLMs, without drug, or without the NADPH-generating system (all in quadruplicate) were carried out under the same conditions with every SRL HLM metabolism batch.
(§2) For data analysis, we utilized Sciex Analyst Software (version TF1.7.1) to process and interpret mass spectrometry data. […] Kinetics data was fitted using the GraphPad Prism Enzyme Kinetics Module (Version 10.0.2, for Windows, GraphPad Software, Boston, MA, USA).
(§3) The formation rates of hydroxy SRL and desmethyl SRL were analyzed and fitted using Michaelis–Menten kinetics. This approach enables the determination of kinetic parameters such as Vmax (maximum reaction velocity) and Km (substrate concentration at half-maximal velocity), which provide insight into the enzymatic activity and substrate affinity for these metabolites. […] To compare the formation of the various metabolites and to predict the human hepatic clearance, the apparent intrinsic clearances of the formation of the metabolites (CLint = Vmax/Km) were calculated.
A general note: Liver microsomes are a subcellular fraction often used to study metabolism.

In data set [2] the test system is phytohemagglutinin-stimulated human lymphocyte proliferation. Details: method as in PMID 1352208. To be noted: percent of the immunosuppressive activity of SRL; cited from earlier work.
Details of data set [3]: method as in doi:10.1016/S0955-470X(10)80014-X, PMID 11165091. Conditions: stability is increased in a mildly acidic environment; cited from earlier work.
The nature of data set [4]: Formation kinetics of SRL metabolites by pooled human liver microsomes. The data set is classed as in vitro ADME. Conditions: human, pooled human liver microsomes, pH 7.4; sum over metabolite formation, pooled HLM, CLint = Vmax/Km; read-out: total Clint derived from the formation of hydroxylated and demethylated SRL metabolites. The method, then: as §1, §2, §3

As to “27-O-Desmethyl sirolimus [27-O-desmethyl SRL]”, the Vmax in data set [1] (n = 4) worked out at 0.552 pmol/mg protein/min.

In the case of `CO[C@H]1C[C@@H]2CC(O)[C@@H](C)[C@@](O)(O2)C(=O)C(=O)N2CCCC[C@H]2C(=O)O[C@H]([C@H](C)C[C@@H]2CC[C@@H](O)[C@H](OC)C2)CC(=O)[C@H](C)/C=C(\C)[C@@H](O)[C@@H](OC)C(=O)[C@H](C)C[C@H](C)/C=C/C=C/C=C/1C` (stereo partly drawn) [12-Hydroxy SRL, 12-Hydroxy sirolimus], in data set [1] (n = 4), the Michaelis-Menten constant (Km) turned out to be 7.21 µM and the Vmax is recorded as 4.264 pmol/mg protein/min. For the same compound, in data set [1] (n = 4, listed as 12-hydroxy SRL), the Vmax is 4.3 pmol/mg protein/min. Also, the CLint in data set [1] came out at 0.6 µL/mg protein/min.

For `COC1CC2CCC(C)C(O)(O2)C(=O)C(=O)N2CCCCC2C(=O)OC(C(C)CC2CCC(O)C(O)C2)CC(=O)C(C)C=C(C)C(O)C(OC)C(=O)C(C)CC(C)C=CC=CC=C1C` (stereo not drawn) [39-O-desmethyl SRL, 39-O-Desmethyl sirolimus], in data set [2], the “immunosuppressive activity relative to SRL” value was 10%. The Km in data set [1] (n = 4) is 15 µM. For the same compound, the Vmax amounted to 9.6 pmol/mg protein/min in data set [1] (n = 4) and 9.647 pmol/mg protein/min in data set [1] (n = 4, listed as 39-O-desmthyl SRL). The CLint in data set [1] is given as 0.65 µL/mg protein/min.

11-Hydroxy sirolimus [11-Hydroxy SRL]: the Vmax was 6.203 pmol/mg protein/min in data set [1] (n = 4) and 6.2 pmol/mg protein/min in data set [1] (n = 4, listed as 11-hydroxy SRL).

As to `CO[C@@H]1C[C@H](C[C@@H](C)[C@@H]2CC(=O)[C@H](C)/C=C(\C)[C@@H](O)[C@@H](OC)C(=O)[C@H](C)C[C@H](C)/C=C/C=C/C=C(\C)[C@@H](O)C[C@@H]3CC[C@@H](C)[C@@](O)(O3)C(=O)C(=O)N3CCCC[C@H]3C(=O)O2)CC[C@H]1O` [16-O-desmethyl SRL, 16-O-Desmethyl sirolimus], in data set [1] (n = 4), the Km is 24.4 µM and the Vmax was found to be 1.828 pmol/mg protein/min. Moreover, the CLint in data set [1] worked out at 0.08 µL/mg protein/min.

For the compound “23/24-Hydroxy sirolimus [23/24-Hydroxy SRL]”, the Vmax in data set [1] (n = 4) amounted to 2.221 pmol/mg protein/min.

Take `CO[C@H]1C[C@@H]2CC[C@@H](C)[C@@](O)(O2)C(=O)C(=O)N2CCCC[C@H]2C(=O)O[C@H]([C@H](C)C[C@@H]2CC[C@@H](O)[C@H](OC)C2)CC(=O)[C@H](C)/C=C(\C)[C@@H](O)[C@@H](OC)C(=O)[C@H](C)C[C@H](C)/C=C/C=C/C=C/1C` [SRL, Sirolimus]: the “stability in aqueous solutions” value in data set [3] is “low stability in aqueous solutions”. The microsomal CLint in data set [4] stood at 2.35 µL/min/mg.
